Measured values from US4725583A, “Functionalized peptidylaminoalcohols” (Abbott Laboratories, priority 1986, dated 1988).

The compounds below were run against T1, human renal renin (Homo sapiens, UniProt P00797) (assay: In vitro inhibition of human renal renin (angiotensin I formation measured by radioimmunoassay)). Settings: human renal renin with human renin substrate (angiotensinogen), 37° C., pH 6.0.
T1 construct: human renal renin, free from acid proteolytic activity; from tissue
T1 sequence (P00797 67-406): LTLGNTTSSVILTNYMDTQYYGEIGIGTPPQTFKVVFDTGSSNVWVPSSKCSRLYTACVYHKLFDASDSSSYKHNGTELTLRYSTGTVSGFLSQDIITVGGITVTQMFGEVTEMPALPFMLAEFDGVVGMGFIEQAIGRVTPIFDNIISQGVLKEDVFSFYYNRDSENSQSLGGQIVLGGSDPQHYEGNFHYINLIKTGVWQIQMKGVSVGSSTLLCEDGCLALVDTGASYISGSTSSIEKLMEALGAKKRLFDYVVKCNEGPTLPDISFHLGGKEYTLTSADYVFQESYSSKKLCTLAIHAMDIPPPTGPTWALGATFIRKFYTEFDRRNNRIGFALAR
Format: biochemical

Compound | IC50 [µM]
CC(C)C[C@H](NC(=O)[C@H](C)NC(=O)[C@H](Cc1ccccc1)NC(=O)OC(C)(C)C)C(O)C=O (stereo partly drawn) [Example 3, Boc-Phe-Ala Amide of (3S)-Amino-2-hydroxy-5-methylhexanal] | 0.01
C[C@H](NC(=O)[C@H](Cc1ccccc1)NC(=O)OC(C)(C)C)C(=O)N[C@@H](CC1CCCCC1)[C@@H](O)CCl [Example 14, Boc-Phe-Ala Amide of (2R,3S)-3-Amino-1-chloro-4-cyclohexyl-2-hydroxybutane] | 0.4
C[C@H](NC(=O)[C@H](Cc1ccccc1)NC(=O)OC(C)(C)C)C(=O)N[C@@H](CC1CCCCC1)[C@@H](O)CBr [Example 16, Boc-Phe-Ala Amide of (2R,3S)-3-Amino-1-bromo-4-cyclohexyl-2-hydroxybutane] | 0.7
CC(C)CC(=O)C(O)[C@H](CC1CCCCC1)NC(=O)[C@H](Cc1cnc[nH]1)NC(=O)[C@H](Cc1ccccc1)NC(=O)OC(C)(C)C (stereo partly drawn) [Example 19, Boc-Phe-His Amide of (2S)-Amino-1-cyclohexyl-3-hydroxy-6-methylheptan-4-one] | 0.01
